Test results reported in publication PMC12040169 (PLOS Biology, 2025).
Where “and” joins values, the source holds several entries; their conditions need not be identical. Equal entries are not always repeated.

Legend:
in vitro = conditions: human, hela cells, % viability
HeLa = conditions: bulk resorufin, single well, 28.5 h, 10 µM, Bulk resorufin fluorescence

| Structure (SMILES) | viability at 28.5 h, 10 µM (in vitro) [%] | % viability (HeLa) |
| --- | --- | --- |
| O=C(O)c1cc(S(=O)(=O)NCc2ccco2)c(Cl)cc1N1CCCCC1 [CBK263409] | 108 | 92.5% |
| CCN(CC)CCNC(=O)/C(=N\O)c1ccccn1 [CBK264538] | 90.6 | 93.9% |
| Cn1c(=O)c2c(-c3ccccc3)n(-c3ccc(C(=O)O)cc3)cc2n(C)c1=O [CBK265040] | 84 | 98.4% |
| O=C(CC1SC(Nc2ccc(O)cc2)=NC1=O)c1ccccc1 (centres unmarked) [CBK267009] | 98.5 | 89% |
| O=C(O)C1(c2ccccc2)CCN(S(=O)(=O)c2ccc(F)cc2)CC1 [CBK267571] | 92.9 | 87.8% |
| O=C(O)CCS(=O)(=O)c1nc(-c2ccccc2)cc(C(F)(F)F)n1 [CBK268832] | 104 | 102% |
| Cc1nnc(SCC(=O)Nc2ccc(CN3CCOCC3)cc2)s1 [CBK269849] | 96.4 | 112% |
| O=c1cc(CSc2ccccn2)[nH]c2[nH]n(-c3ccccc3)c(=O)c12 [CBK269895] | 92.7 | 109% |
| O=C(Cn1c([C@H]2CCCO2)cc2cccnc21)NC1CC1 [CBK282274] | 94.8 | 102% |
| O=C(Cn1c([C@@H]2CCCO2)cc2cccnc21)N1CCCCCC1 [CBK282285] | 88 | 101% |
| CC1CCCN(Cc2c([C@H]3CCCO3)[nH]c3ncccc23)C1 (some centres unmarked) [CBK282287] | 110 | 106% |
| CC[C@@H](Cn1nc(-c2cccs2)ccc1=O)NC(=O)c1ccco1 [CBK282308] | 94.7 | 87.3% |
| O=C(NC1CCCCC1)[C@H]1C=CCN1C(=O)c1ccc(F)cc1F [CBK282311] | 95 | 97.2% |
| CC[C@@H](Cn1nc(-c2ccc(F)c(F)c2)ccc1=O)NC(=O)C1CC1 [CBK282313] | 90.6 | 89.3% |
| CC(C)[C@H](Cn1nc(C2CC2)ccc1=O)NC(=O)C1CCC1 [CBK282367] | 85.1 | 91.4% |
| O=C(NCCc1ccccc1)[C@H]1C=CCN1C(=O)c1ccc(F)cc1 [CBK282383] | 89.4 | 96.3% and 92.6% |
| CC[C@@H](Cn1ncc2ccccc2c1=O)NC(=O)C1CCC1 [CBK282384] | 93.4 | 82% |
| CC(C)(C)NC(=O)CN1C(=O)[C@H]2CCCN2C(=O)c2ccccc21 [CBK282428] | 89.5 | 107% |
| O=C(CN1C(=O)[C@H]2CCCN2C(=O)c2ccccc21)NC1CCCC1 [CBK282438] | 112 | 110% |
| C=CCNC(=O)[C@H]1C=CCN1S(=O)(=O)c1cccc2ccccc12 [CBK282440] | 91 | 102% |
| COc1cccc(CN2C(=O)[C@H]3CCCN3C(=O)c3ccccc32)c1 [CBK282852] | 108 | 106% |
| O=C(CN1C(=O)[C@H]2CCCN2C(=O)c2ccccc21)NCC1CC1 [CBK282853] | 87.6 | 88.6% |
| O=C1[C@@H]2CCCN2C(=O)c2ccccc2N1Cc1ccccc1F [CBK282855] | 93.9 | 106% |
| O=C1[C@@H]2CCCN2C(=O)c2ccccc2N1Cc1ccc(F)cc1 [CBK282856] | 117 | 99.5% |
| CCC(C)NC(=O)Cn1c([C@H]2CCCO2)cc2cccnc21 (some centres unmarked) [CBK282874] | 88.1 | 100% |
| CC(CCN1CC2C[C@@H](O)CN2C[C@H]1C)c1ccccc1 (some centres unmarked) [CBK283010] | 82.4 | 89.2% |
| C[C@H](Cn1c(C(F)(F)F)cc2cccnc21)NC(=O)C1CC1 [CBK283227] | 93.7 | 89.4% |
| O=C(C1CC1)N1CCC[C@H]1Cn1nc(-c2cccs2)ccc1=O [CBK284250] | 76.7 | 80.9% |
